According to US11149029B2, “Salts of IJAK inhibitors and methods of using the same” (AstraZeneca AB, priority 2018, dated 2021):
Values joined by “and” are separate entries in the source; they are usually repeats but may differ in a detail not shown here. Equal entries are not always repeated. Structures can show the parent of a compound that is named as a salt.

What was measured:
[1] = Weight loss on heating from room temperature to 120° C.; type: physicochemical; conditions: heating from room temperature (RT) to 120° C.
Procedure: From the crystal structure (performed using single crystal X-ray diffraction, SXRD) of the free base compound of Formula (Ia), it was determined that the form was a non-stoichiometric hydrate.
Accordingly, a salt screen was performed and out of 20 counter ions tested, three salts (phosphoric, sulfuric and xinafoic salt) were scaled up (5 g) and further analysis was performed. […] (sulfuric salt) and 5.4% w/w RT−120° C. (phosphoric salt).
Screening was performed at Almac including over 110 solvent and non-solvent based screening experiments.

[2] = Gravimetric vapor sorption analysis (GVS), water absorption 0-80% relative humidity; type: physicochemical; conditions: for Water absorption 0-80% RH (% w/w): gravimetric vapor sorption
[3] = listed as free base compound of Formula (Ia)

| Weight loss RT-120° C. (% w/w) [1] [% w/w] | Weight loss RT-120° C. (% w/w) [1, 3] [% w/w] | Hygroscopicity (in words) [2] | Water absorption 0-80% RH (% w/w) [2] [% w/w] | Water absorption 0-80% RH (% w/w) [2, 3] | Weight loss RT-120° C. (% w/w) ([1]; listed as xinafoate salt) | Water absorption 0-80% RH (% w/w) ([2]; listed as xinafoate salt) | SMILES |
| --- | --- | --- | --- | --- | --- | --- | --- |
| ~5 | 5 | slightly hygroscopic | ~1.7 | 2 % w/w and 1.7 % w/w | – | – | COC[C@H](C(=O)Nc1cccc2c(-c3nc(Nc4cccc(S(C)(=O)=O)c4F)ncc3F)c[nH]c12)N1CCN(C)CC1 [Free base compound of Formula (Ia), (R)—N-(3-(5-fluoro-2-(2-fluoro-3-(methylsulfonyl)phenylamino)pyrimidin-4-yl)-1H-indol-7-yl)-3-methoxy-2-(4-methylpiperazin-1-yl)propanamide] |
| ~0.2 | – | non-hygroscopic | ~0.2 | – | 0.2 | 0.2 | COC[C@H](C(=O)Nc1cccc2c(-c3nc(Nc4cccc(S(C)(=O)=O)c4F)ncc3F)c[nH]c12)N1CCN(C)CC1 [Xinafoate salt of compound of Formula (Ia)] [4-{(2R)-1-[(3-{5-fluoro-2-[2-fluoro-3-(methanesulfonyl)anilino]pyrimidin-4-yl}-1H-indol-7-yl)amino]-3-methoxy-1-oxopropan-2-yl}-1-methylpiperazin-1-ium; 1-hydroxynaphthalene-2-carboxylate] |
